{
  "source": "patent US9353101B2",
  "about": "(Merck Sharp & Dohme Corp., priority 2012, dated 2016)",
  "data": [
    {"molecular_target": "CETP (Homo sapiens (Human), UniProt P11597)", "sequence (P11597 18-493 limits assumed)": "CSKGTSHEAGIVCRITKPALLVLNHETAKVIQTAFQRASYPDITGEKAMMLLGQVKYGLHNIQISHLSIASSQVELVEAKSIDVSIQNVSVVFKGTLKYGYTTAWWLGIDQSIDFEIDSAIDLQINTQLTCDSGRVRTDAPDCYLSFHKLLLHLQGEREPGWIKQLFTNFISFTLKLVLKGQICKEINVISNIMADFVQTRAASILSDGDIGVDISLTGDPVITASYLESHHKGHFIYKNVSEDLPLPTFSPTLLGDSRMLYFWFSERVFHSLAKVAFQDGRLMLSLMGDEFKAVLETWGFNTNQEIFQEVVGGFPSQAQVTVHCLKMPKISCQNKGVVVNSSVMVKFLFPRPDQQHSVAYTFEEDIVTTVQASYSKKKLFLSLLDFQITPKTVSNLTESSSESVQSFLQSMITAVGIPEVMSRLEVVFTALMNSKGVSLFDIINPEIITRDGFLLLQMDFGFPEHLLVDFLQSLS", "assay": "In vitro radioactive assay of CETP-catalyzed CE and TG transfer (RTA assay), 95% human serum", "assay_type": "biochemical", "conditions": "RTA assay in 95% human serum; read-out: RTA IC50 (CETP Inhibition)", "description": "In Vitro Radioactive Assays of CETP-Catalyzed CE and TG Transfer (RTA Assay)\nReagents and sources are: [3H] cholesteryl oleate (GE #TRK.886), [3H] Triolein (Perkin-Elmer NET-431), Butylated hydroxyl toluene (Aldrich, #D4740-4), DOPC (Sigma, # P6354), Sodium Bromide (Fisher scientific #S255-500), PEG 8000 (Fisher, #BP233-1), and human HDL (Intracel Corp #RP-036).\nAn in vitro assay for determining IC50's to identify compounds that inhibit CETP transfer activity is performed based on a modification of a published method (Morton and Zilversmit, (1981) A plasma inhibitor of triglyceride and cholesteryl ester transfer activities, J. Biol. Chem. 256(23), 11992-11995). The ability of inhibitors to alter CETP activity is performed using two different assays: one using recombinant CETP and one using an endogenous plasma source of CETP. Both assays measure the transfer of [3H] cholesteryl oleate or [3H] triolein from exogenous LDL to HDL.\nRadiolabeled donor particles are generated by first combining 100 μl of 200 μM butylated hydroxyl toluene in CHCl3, 216 μL of 21.57 mM DOPC in EtOH, and either 500 μCi [3H]-triolein (Perkin Elmer #NET-431) or 500 μCi [3H]-cholesteryl oleate (GE #TRK886) in a glass tube. Reagents are mixed, dried under nitrogen, and then resuspended in 2 mL of 50 mM Tris, 27 μM EDTA at pH 7.4. After a brief vortex, the solution is sonicated until clear and mixed with 20 mL of fresh human serum. The mixture is incubated overnight at 37° C. The [3H] labeled LDL substrate is separated at 1.063 g/ml density by sequential ultracentrifugal flotation in NaBr according to the method by (Havel, Eder et al. 1955; Chapman, Goldstein et al. 1981). Once isolated the particles are dialyzed 3× in CETP buffer (50 mM Tris, pH 7.4, 100 mM NaCl, 1 mM EDTA). Human HDL is purchased from Intracel and used as the acceptor particles.\nTransfer assays are performed in a 96 or 384-well v-bottom polypropylene plate. For the RTA using recombinant CETP (2% RTA), an assay cocktail is prepared with the final concentrations 128 μg/mL HDL, 20 nM rCETP, 2% human serum, and 1×CETP buffer. 1 μL of each test compound diluted in DMSO is added to 47 μL of assay cocktail per well and incubated at 37° C. for 1 hour. To initiate the transfer reaction, 2 μL radiolabeled LDL is added. After an additional 60 min of incubation at 37° C., the transfer action is terminated by precipitation of LDL with an equal volume of 20% W/V PEG 8000. The plates are centrifuged at 2000 rpm for 30 minutes at 4° C. A 40 μL aliquot of the HDL-containing supernatant is transferred to a Packard Optiplate™ with 200 μL of MicroScint™ 20. After mixing, plates are counted by liquid scintillation. Counts present in the supernatant for blanks (wells containing only HDL acceptor, CETP buffer and DMSO) are subtracted from those containing test compounds and used to correct for non-specific transfer.\nFor the transfer assay using endogenous CETP from serum (95% RTA), the same procedure is used except that human serum is added such that a final concentration of serum of 95% of the total assay volume is achieved, yielding a concentration of approximately 15 nM endogenous CETP in the assay. This is then combined with HDL and CETP buffer and the reaction proceeds as above and is terminated as described.\nComparison of the counts of samples with inhibitors to an uninhibited (DMSO only) positive control yield a percent inhibition. A plot of percent inhibition vs. log of inhibitor concentration, fit to a Sigmoidal 4 parameter equation is used to calculate IC50.\nStarting materials are commercially available or are made using known procedures or as shown below. The examples may be synthesized using the general schemes provided below. The data reported for the examples below were obtained using the RTA assay in 95% human serum.", "units": {"IC50": "nM"}, "values": [
      {"smiles": "COc1ncc(-c2ccc(C(=O)O)cc2C)cc1-c1cnc(N2CC(F)(F)C2)nc1CN1C(=O)O[C@H](c2cc(C(F)(F)F)cc(C(F)(F)F)c2)[C@@H]1C", "note": "[Example 42, 4-{5-[4-({(4S,5R)-5-[3,5-Bis(trifluoromethyl)phenyl]-4-methyl-2-oxo-1,3-oxazolidin-3-yl}methyl)-2-(3,3-difluoroazetidin-1-yl)pyrimidin-5-yl]-6-methoxypyridin-3-yl}-3-methylbenzoic acid]", "IC50": 9},
      {"smiles": "COc1ncc(-c2ccc(C(=O)O)cc2C)cc1-c1cnc(-n2ccnc2)nc1CN1C(=O)O[C@H](c2cc(C(F)(F)F)cc(C(F)(F)F)c2)[C@@H]1C", "note": "[Example 43, 4-{5-[4-({(4S,5R)-5-[3,5-Bis(trifluoromethyl)phenyl]-4-methyl-2-oxo-1,3-oxazolidin-3-yl}methyl)-2-(1H-imidazol-1-yl)pyrimidin-5-yl]-6-methoxypyridin-3-yl}-3-methylbenzoic acid]", "IC50": 109},
      {"smiles": "COc1ncc(-c2ccc(C(=O)O)cc2C)cc1-c1cnc(N2CC(F)C2)nc1CN1C(=O)O[C@H](c2cc(F)cc(F)c2)[C@@H]1C", "note": "[Example 44, 4-{5-[4-{[(4S,5R)-5-(3,5-Difluorophenyl)-4-methyl-2-oxo-1,3-oxazolidin-3-yl]methyl}-2-(3-fluoroazetidin-1-yl)pyrimidin-5-yl]-6-methoxypyridin-3-yl}-3-methylbenzoic acid]", "IC50": 35},
      {"smiles": "COc1ncc(-c2ccc(C(=O)O)cc2C)cc1-c1cnc(N2CC(F)C2)nc1CN1C(=O)O[C@H](c2cccc(OC(F)(F)F)c2)[C@@H]1C", "note": "[Example 45, 4-{5-[2-(3-Fluoroazetidin-1-yl)-4-({(4S,5R)-4-methyl-2-oxo-5-[3-(trifluoromethoxy)phenyl]-1,3-oxazolidin-3-yl}methyl)pyrimidin-5-yl]-6-methoxypyridin-3-yl}-3-methylbenzoic acid]", "IC50": 50},
      {"smiles": "COc1ncc(-c2ccc(C(=O)O)cc2C)cc1-c1cnc(N2CC(F)C2)nc1CN1C(=O)O[C@H](c2cc(F)cc(C(F)(F)F)c2)[C@@H]1C", "note": "[Example 46, 4-{5-[2-(3-Fluoroazetidin-1-yl)-4-({(4S,5R)-5-[3-fluoro-5-(trifluoromethyl)phenyl]-4-methyl-2-oxo-1,3-oxazolidin-3-yl}methyl)pyrimidin-5-yl]-6-methoxypyridin-3-yl}-3-methylbenzoic acid]", "IC50": 12},
      {"smiles": "COc1ncc(-c2ccc(C(=O)O)cc2C)cc1-c1cnc(N2CC(F)(F)C2)nc1CN1C(=O)O[C@H](c2cc(F)cc(C(F)(F)F)c2)[C@@H]1C", "note": "[Example 47, 4-{5-[2-(3,3-Difluoroazetidin-1-yl)-4-({(4S,5R)-5-[3-fluoro-5-(trifluoromethyl)phenyl]-4-methyl-2-oxo-1,3-oxazolidin-3-yl}methyl)pyrimidin-5-yl]-6-methoxypyridin-3-yl}-3-methylbenzoic acid]", "IC50": 9},
      {"smiles": "COc1ncc(-c2c(C)cc(C(=O)O)cc2C)cc1-c1cnc(N2CC(F)C2)nc1CN1C(=O)O[C@H](c2cc(F)cc(C(F)(F)F)c2)[C@@H]1C", "note": "[Example 48, 4-{5-[2-(3-Fluoroazetidin-1-yl)-4-({(4S,5R)-5-[3-fluoro-5-(trifluoromethyl)phenyl]-4-methyl-2-oxo-1,3-oxazolidin-3-yl}methyl)pyrimidin-5-yl]-6-methoxypyridin-3-yl}-3,5-dimethylbenzoic acid]", "IC50": 15},
      {"smiles": "Cc1cc(C(=O)O)ccc1-c1nc(C(C)(C)C)c(-c2cnc(N3CC(F)(F)C3)nc2CN2C(=O)O[C@H](c3cc(C(F)(F)F)cc(C(F)(F)F)c3)[C@@H]2C)s1", "note": "[Example 49, 4-{5-[4-({(4S,5R)-5-[3,5-Bis(trifluoromethyl)phenyl]-4-methyl-2-oxo-1,3-oxazolidin-3-yl}methyl)-2-(3,3-difluoroazetidin-1-yl)pyrimidin-5-yl]-4-tert-butyl-1,3-thiazol-2-yl}-3-methylbenzoic acid]", "IC50": 800},
      {"smiles": "Cc1cc(C(=O)O)ccc1-c1nc(C(C)(C)C)c(-c2cnc(N3CC(F)C3)nc2CN2C(=O)O[C@H](c3cc(C(F)(F)F)cc(C(F)(F)F)c3)[C@@H]2C)s1", "note": "[Example 50, 4-{5-[4-({(4S,5R)-5-[3,5-Bis(trifluoromethyl)phenyl]-4-methyl-2-oxo-1,3-oxazolidin-3-yl}methyl)-2-(3-fluoroazetidin-1-yl)pyrimidin-5-yl]-4-tert-butyl-1,3-thiazol-2-yl}-3-methylbenzoic acid]", "IC50": 197},
      {"smiles": "Cc1cc(C(=O)O)ccc1-c1nc(C)c(-c2cnc(N3CC(F)C3)nc2CN2C(=O)O[C@H](c3cc(C(F)(F)F)cc(C(F)(F)F)c3)[C@@H]2C)s1", "note": "[Example 51, 4-{5-[4-({(4S,5R)-5-[3,5-Bis(trifluoromethyl)phenyl]-4-methyl-2-oxo-1,3-oxazolidin-3-yl}methyl)-2-(3-fluoroazetidin-1-yl)pyrimidin-5-yl]-4-methyl-1,3-thiazol-2-yl}-3-methylbenzoic acid]", "IC50": 33},
      {"smiles": "Cc1cc(C(=O)O)ccc1-c1nc(C)c(-c2cnc(N3CC(F)(F)C3)nc2CN2C(=O)O[C@H](c3cc(C(F)(F)F)cc(C(F)(F)F)c3)[C@@H]2C)s1", "note": "[Example 52, 4-{5-[4-({(4S,5R)-5-[3,5-Bis(trifluoromethyl)phenyl]-4-methyl-2-oxo-1,3-oxazolidin-3-yl}methyl)-2-(3,3-difluoroazetidin-1-yl)pyrimidin-5-yl]-4-methyl-1,3-thiazol-2-yl}-3-methylbenzoic acid]", "IC50": 61},
      {"smiles": "Cc1cc(C(=O)O)ccc1-c1cnc(C)c(-c2cnc(N3CC(F)C3)nc2CN2C(=O)O[C@H](c3cc(C(F)(F)F)cc(C(F)(F)F)c3)[C@@H]2C)c1", "note": "[Example 54, 4-{5-[4-({(4S,5R)-5-[3,5-Bis(trifluoromethyl)phenyl]-4-methyl-2-oxo-1,3-oxazolidin-3-yl}methyl)-2-(3-fluoroazetidin-1-yl)pyrimidin-5-yl]-6-methylpyridin-3-yl}-3-methylbenzoic acid]", "IC50": 26},
      {"smiles": "COc1ncc(-c2ccc(C(=O)OC(C)(C)C)cc2C)cc1-c1ccc(N2CCOCC2)nc1CN1C(=O)O[C@H](c2cc(C(F)(F)F)cc(C(F)(F)F)c2)[C@@H]1C", "note": "[Example 55]", "IC50": 22},
      {"smiles": "COc1ncc(-c2ccc(C(=O)O)cc2C)cc1-c1ccc(N2CCOCC2)nc1CN1C(=O)O[C@H](c2cc(C(F)(F)F)cc(C(F)(F)F)c2)[C@@H]1C", "note": "[Example 56]", "IC50": 9},
      {"smiles": "COc1ncc(-c2c(C)cc(C(=O)OC(C)(C)C)cc2C)cc1-c1ccc(N2CC(F)(F)C2)nc1CN1C(=O)O[C@H](c2cc(C(F)(F)F)cc(C(F)(F)F)c2)[C@@H]1C", "note": "[Example 57]", "IC50": 5},
      {"smiles": "COc1ncc(-c2c(C)cc(C(=O)O)cc2C)cc1-c1ccc(N2CC(F)(F)C2)nc1CN1C(=O)O[C@H](c2cc(C(F)(F)F)cc(C(F)(F)F)c2)[C@@H]1C", "note": "[Example 58]", "IC50": 7},
      {"smiles": "COc1ncc(-c2ccc(C(=O)OC(C)(C)C)cc2C)cc1-c1ccc(N2CC(F)(F)C2)nc1CN1C(=O)O[C@H](c2cc(C(F)(F)F)cc(C(F)(F)F)c2)[C@@H]1C", "note": "[Example 59]", "IC50": 15},
      {"smiles": "COc1ncc(-c2ccc(C(=O)O)cc2C)cc1-c1ccc(N2CC(F)(F)C2)nc1CN1C(=O)O[C@H](c2cc(C(F)(F)F)cc(C(F)(F)F)c2)[C@@H]1C", "note": "[Example 60]", "IC50": 5},
      {"smiles": "COc1ncc(-c2ccc(C(=O)OC(C)(C)C)cc2C)cc1-c1ccc(N2CC(F)C2)nc1CN1C(=O)O[C@H](c2cc(C(F)(F)F)cc(C(F)(F)F)c2)[C@@H]1C", "note": "[Example 61]", "IC50": 15},
      {"smiles": "COc1ncc(-c2ccc(C(=O)O)cc2C)cc1-c1ccc(N2CC(F)C2)nc1CN1C(=O)O[C@H](c2cc(C(F)(F)F)cc(C(F)(F)F)c2)[C@@H]1C", "note": "[Example 62]", "IC50": 6}
    ]}
  ]
}
